Laboratory results: patent US20260137671A1, “PDK4 as a Cell-Aging Intervention Target and Its Use in Chemotherapy and Anticancer” (Shanghai Institute of Nutrition and Health, Chinese Academy …, priority 2022, published 2026)

Assays:
[1] = test system: MDA-MB-231 breast cancer cells xenografted together with HBF1203 breast stromal cells; experiment: MDA-MB-231/HBF1203 xenograft, tumor end volume after chemotherapy and/or PDK4-IN; assay type: in vivo, SCID mice; conditions: PDK4-IN 10.0 mg/kg combined with DOX 1.0 mg/kg i.p.
Experimental: All experimental mouse experiments were carried out in strict accordance with the relevant regulations of the Institutional Animal Care and Use Committee (IACUC), Shanghai Institutes for Biological Sciences, Chinese Academy of Sciences. Immuno-deficient mice ICR SCID mice (body weight about 25 g) aged about 6 weeks were used for animal experiments related to the present disclosure. Stromal cells PSC27 and epithelial cells were mixed at a ratio of 1:4, and each graft contained 1.25×10^6 cells for tissue remodeling. The xenograft tumors were implanted into mice by subcutaneous transplantation, and the animals were euthanized 8 weeks after the end of the transplantation surgery. Tumor volume was calculated according to the following formula: V=(π/6)×(([…])/2)^3 (V, volume; 1, length; w, width).
For pre-clinical chemotherapeutic studies, mice received subcutaneous implantation were given standard laboratory diets. […] The time points were on the first day of the third, fifth and seventh weeks, with a total of 3 cycles of treatment, and each cycle lasted for 2 weeks. After the course of treatment, mouse […] were collected for tumor measurement and histological analysis. […] In order to cause systemic expression of SASP factors induced by chemotherapy, MIT was administered to mice through intravenous infusion according to the above steps and sequence, but the dose was reduced to 0.1 mg/kg body weight/each time (the cumulative dose of MIT received in the whole course of treatment was 0.3 mg/kg body weight) to reduce drug-related toxicity. The chemotherapy experiment ended at the end of the 8th week, and the mice were dissected immediately after sacrifice, and the xenograft tumors were collected and used for pathological system analysis.
To assess the in vivo effects of chemotherapeutic drugs and/or PDK4-IN treatment in different tumor types, the inventors subsequently generated xenografts composed of breast cancer cell line MDA-MB-231 and breast stromal cell line HBF1203 to replicate the preclinical intervention observed in prostate cancer xenografts.

[2] = test system: mice implanted with recombinant tissues; experiment: Survival of tumor-bearing mice in time-extended preclinical cohort (bulky disease, size >2,000 mm^3); assay type: in vivo; conditions: PDK4-IN treatment alone versus vehicle
Text: FIG. 74. Curve of bulky DFS plotted against survival time of implantation with recombinant tissues in mice until animal death attributed to advanced bulky disease development. MS, median survival. P values calculated by two-sided log-rank (Mantel-Cox) tests.
Next, the inventors assessed tumor progression consequence by comparing the survival rate of different animal groups in a time-extended preclinical cohort. During tumor surveillance, bulky disease was considered once the tumor burden became prominent (size >2,000 mm^3).

[3] = test system: senescent human stromal cells (PSC27); experiment: Seahorse XF24 metabolic profiling of senescent stromal cells; assay type: cell-based; design: ATP production / basal respiration / maximal respiration: dose or concentration left out as unconfirmed
Experimental: FIG. 26. OCR of stromal cells was measured using an XF24 Extracellular Flux Analyzer. In simple, 1.5 μM oligomycin, 0.5 μM FCCP and 0.5 μM Rot/Ant were injected sequentially in order into each well. The glycolysis rate was calculated as the difference between the maximum rate measured before injection and the last rate measured before glucose injection. All Seahorse data were normalized to cell numbers, with all metabolic parameters automatically calculated by WAVE software equipped in the Seahorse. OCR, oxygen consumption rate. Oligo, oligomycin. FCCP, carbonyl cyanide 4-(trifluoromethoxy) phenylhydrazone. Rot, rotenone. Ant, antimycin. […]
After 6 hours of drug treatment, the cells were simply washed 3 times with PBS, left in the culture medium for 7-˜10 days, and then the subsequent experiments were performed.
Next, the inventors measured the levels of extracellular fluids. […] Among them, HK2 and LDHA are glycolysis-related factors, whereas IDH2, IDH3, OGDH and CS are TCA cycle-involving enzymes. As overexpression of PDK4 per se in normal cells neither caused or abrogated senescence, nor affected the SASP (FIG. 38), the inventors reasoned that senescent cell metabolism was correlated with and likely underpinned by expression of key factors involved in glucose consumption and linked with production of pyruvate, lactate and multiple other metabolites.

[4] = test system: tumor tissues of mice (PC3/PSC27 xenografts); experiment: In vivo cellular senescence and SASP expression in xenograft tumors (LCM transcripts, SA-β-Gal staining); design: species or system SCID mice
Text: (§1) FIG. 66. Transcript assessment of several canonical SASP factors expressed in stromal cells isolated from tumors in SCID mice. LCM isolation, total RNA preparation and expression assays on tissues from animals with simultaneously implanted stromal cells and cancer cells. Note that the group measured as of the lowest value was used as normalization baseline per factor.
as §1, with “67.” for “66.”, “individual” for “several”, “factors (AREG), aging markers (p16/p21) and PDK4” for “factors”
FIG. 68. Representative IHC images of SA-β-Gal staining chromatograms from tissues isolated from animals subjected to placebo or drug treatments. Scale bar, 100 μm. Right, Comparative statistical analysis of SA-β-Gal staining for tissues in mice mentioned above.
Senescence-associated β-galactosidase (SA-β-Gal) staining was performed following a previously reported procedure (Debacq-Chainiaux et al., 2009). Briefly, cells in culture dishes were washed with PBS and fixed at room temperature. Cells were fixed in 2% formaldehyde and 0.2% glutaraldehyde for 3 minutes. SA-β-Gal was used for staining with freshly prepared staining solution overnight at 37° C. Images were taken on the next day and the percentage of positive cells per unit area was calculated.
For pre-clinical chemotherapeutic studies, mice received subcutaneous implantation were given standard laboratory diets. […] The time points were on the first day of the third, fifth and seventh weeks, with a total of 3 cycles of treatment, and each cycle lasted for 2 weeks. After the course of treatment, mouse […] were collected for tumor measurement and histological analysis. […]

[5] = senescence-associated change, PDK4-IN treated

O=C1c2ccccc2C(=O)c2c1cccc2-c1cnn(C2CCNCC2)c1 [PDK4-IN]
further decline of tumor volume on the basis of doxorubicin (DOX) [1]: 39.8%
tumor size reduction in total compared to the control group [1]: 69.5%
survival benefit as single agent [2]: only marginal survival advantage
H^+ (proton) leak [3, 5]: reversed changes
lactate production [3, 5]: reversed changes
non-mitochondrial oxygen consumption [3, 5]: reversed changes
pH fluctuation [3, 5]: reversed changes
ATP production ([3]; senescent cells, PDK4-IN-1): further promoted
basal respiration ([3]; senescent cells, PDK4-IN-1): further promoted
maximal respiration ([3]; senescent cells, PDK4-IN-1): further promoted
SA-β-gal positivity in tumor tissues ([4]; histological staining, FIG. 68): neither induced senescence nor inhibited senescence
cellular senescence / SASP factor and senescence marker expression in vivo ([4]; single agent or in combination with MIT, FIGS. 66-67): neither induced nor affected cellular senescence
